ChEMBL document CHEMBL3112450, “Synthesis and in vitro antitumor evaluation of primary amine substituted quinazoline linked benzimidazole” (Bioorg Med Chem Lett, 2014)

Columns and labels:
Format in all cases: functional
SR = assay: Cytotoxicity against human SR cells after 48 hrs by SRB assay
MDA-MB-468 = assay: Cytotoxicity against human MDA-MB-468 cells assessed as cell growth at 10^-4 M after 48 hrs by SRB assay; conditions: MDA-MB-468, 48 h, read-out: Activity
MCF7 [1] = assay: Cytotoxicity against human MCF7 cells assessed as cell growth at 10^-4 M after 48 hrs by SRB assay; conditions: MCF7, 48 h, read-out: Activity
SK-MEL-2 [2] = assay: Cytotoxicity against human SK-MEL-2 cells assessed as cell growth at 10^-7 M after 48 hrs by SRB assay; conditions: SK-MEL-2, 48 h, read-out: Activity
SF-539 [3] = assay: Cytotoxicity against human SF539 cells assessed as cell growth at 10^-7 M after 48 hrs by SRB assay; conditions: SF-539, 48 h, read-out: Activity
NCI-H460 = assay: Cytotoxicity against human NCI-H460 cells assessed as cell growth at 10^-7 M after 48 hrs by SRB assay; conditions: NCI-H460, 48 h, read-out: Activity
NCI-H322M = assay: Cytotoxicity against human NCI-H322M cells assessed as cell growth at 10^-7 M after 48 hrs by SRB assay; conditions: read-out: Activity
[4] = Cytotoxicity against human UO31 cells assessed as cell growth at 10^-8 M after 48 hrs by SRB assay; conditions: UO-31, 48 h, read-out: Activity
SK-MEL-5 = assay: Cytotoxicity against human SK-MEL-5 cells assessed as cell growth at 10^-4 M after 48 hrs by SRB assay; conditions: SK-MEL-5, 48 h, read-out: Activity
HCC 2998 = assay: Cytotoxicity against human HCC2998 cells assessed as cell growth at 10^-4 M after 48 hrs by SRB assay; conditions: HCC 2998, 48 h, read-out: Activity
NCI-H522 [5] = assay: Cytotoxicity against human NCI-H522 cells assessed as cell growth at 10^-4 M after 48 hrs by SRB assay; conditions: NCI-H522, 48 h, read-out: Activity
HOP-92 [6] = assay: Cytotoxicity against human HOP92 cells assessed as cell growth at 10^-4 M after 48 hrs by SRB assay; conditions: HOP-92, 48 h, read-out: Activity
ACHN = assay: Cytotoxicity against human ACHN cells assessed as cell growth at 10^-8 M after 48 hrs by SRB assay; conditions: read-out: Activity
786-0 [7] = assay: Cytotoxicity against human 786-0 cells assessed as cell growth at 10^-8 M after 48 hrs by SRB assay; conditions: 786-0, 48 h, read-out: Activity
UACC-62 = assay: Cytotoxicity against human UACC62 cells assessed as cell growth at 10^-8 M after 48 hrs by SRB assay; conditions: UACC-62, 48 h, read-out: Activity
SF-539 [8] = assay: Cytotoxicity against human SF539 cells assessed as cell growth at 10^-8 M after 48 hrs by SRB assay; conditions: SF-539, 48 h, read-out: Activity
SF-268 [9] = assay: Cytotoxicity against human SF268 cells assessed as cell growth at 10^-8 M after 48 hrs by SRB assay; conditions: SF-268, 48 h, read-out: Activity
NCI-H522 [10] = assay: Cytotoxicity against human NCI-H522 cells assessed as cell growth at 10^-8 M after 48 hrs by SRB assay; conditions: NCI-H522, 48 h, read-out: Activity
T47D = assay: Cytotoxicity against human T47D cells after 48 hrs by SRB assay
MCF7 [11] = assay: Cytotoxicity against human MCF7 cells after 48 hrs by SRB assay; conditions: MCF7, 48 h
MDA-MB-231 [12] = assay: Cytotoxicity against human MDA-MB-231 cells after 48 hrs by SRB assay; conditions: MDA-MB-231, 48 h
PC-3 = assay: Cytotoxicity against human PC3 cells after 48 hrs by SRB assay; conditions: PC-3, 48 h
786-0 [13] = assay: Cytotoxicity against human 786-0 cells after 48 hrs by SRB assay; conditions: 786-0, 48 h
HCT-15 = assay: Cytotoxicity against human HCT15 cells after 48 hrs by SRB assay; conditions: HCT-15, 48 h
MDA-MB-231 [14] = assay: Cytotoxicity against human MDA-MB-231 cells assessed as cell growth at 10^-6 M after 48 hrs by SRB assay; conditions: MDA-MB-231, 48 h, read-out: Activity
HOP-92 [15] = assay: Cytotoxicity against human HOP92 cells assessed as growth inhibition at 10 uM after 48 hrs by SRB assay; conditions: HOP-92, 48 h, read-out: GI
RXF 393 = assay: Cytotoxicity against human RXF393 cells assessed as cell growth at 10^-6 M after 48 hrs by SRB assay; conditions: RXF 393, 48 h, read-out: Activity
786-0 [16] = assay: Cytotoxicity against human 786-0 cells assessed as cell growth at 10^-6 M after 48 hrs by SRB assay; conditions: 786-0, 48 h, read-out: Activity
SK-OV-3 = assay: Cytotoxicity against human SKOV3 cells assessed as cell growth at 10^-6 M after 48 hrs by SRB assay; conditions: SK-OV-3, 48 h, read-out: Activity
[17] = Cytotoxicity against human NCI-ADR-RES cells assessed as cell growth at 10^-6 M after 48 hrs by SRB assay; conditions: read-out: Activity
OVCAR-3 = assay: Cytotoxicity against human OVCAR3 cells assessed as cell growth at 10^-6 M after 48 hrs by SRB assay; conditions: OVCAR-3, 48 h, read-out: Activity
SK-MEL-2 [18] = assay: Cytotoxicity against human SK-MEL-2 cells assessed as cell growth at 10^-6 M after 48 hrs by SRB assay; conditions: SK-MEL-2, 48 h, read-out: Activity
MDA-MB-435 = assay: Cytotoxicity against human MDA-MB-435 cells assessed as cell growth at 10^-6 M after 48 hrs by SRB assay; conditions: MDA-MB-435, 48 h, read-out: Activity
SF-268 [19] = assay: Cytotoxicity against human SF268 cells assessed as cell growth at 10^-6 M after 48 hrs by SRB assay; conditions: SF-268, 48 h, read-out: Activity
NCI-H23 = assay: Cytotoxicity against human NCI-H23 cells assessed as cell growth at 10^-6 M after 48 hrs by SRB assay; conditions: NCI-H23, 48 h, read-out: Activity
HOP-92 [20] = assay: Cytotoxicity against human HOP92 cells assessed as cell growth at 10^-6 M after 48 hrs by SRB assay; conditions: HOP-92, 48 h, read-out: Activity
HOP-62 = assay: Cytotoxicity against human HOP62 cells assessed as cell growth at 10^-6 M after 48 hrs by SRB assay; conditions: HOP-62, 48 h, read-out: Activity
RPMI-8226 = assay: Cytotoxicity against human RPMI8226 cells assessed as cell growth at 10^-6 M after 48 hrs by SRB assay; conditions: RPMI-8226, 48 h, read-out: Activity
OVCAR-8 = assay: Cytotoxicity against human OVCAR8 cells assessed as cell growth at 10^-7 M after 48 hrs by SRB assay; conditions: OVCAR-8, 48 h, read-out: Activity

In the case of `C=CCn1c(C)nc2ccc(Nc3nc(Nc4ccc5nc(C)n(CC=C)c5c4)c4ccccc4n3)cc21`, the GI50 (SR) is reported as 1520 nM, the LC50 (SR) is reported as > 100000 nM and the TGI (SR) is reported as 3980 nM. For the same molecule, the growth at 100 µM (MDA-MB-468) was -33%, the growth at 100 µM (MCF7 [1]) was -22% and the growth at 0.1 µM (SK-MEL-2 [2]) was 99%. It also gave a growth at 0.1 µM (SF-539 [3]) of 94%, a growth at 0.1 µM (NCI-H460) of 101% and a growth at 0.1 µM (NCI-H322M) of 90%. For the same molecule, the growth at 0.01 µM [4] was 84%, the growth at 100 µM (SK-MEL-5) was -24% and the growth at 100 µM (HCC 2998) was -53%. The growth at 100 µM (NCI-H522 [5]) was -15%, the growth at 100 µM (HOP-92 [6]) was -47% and the growth at 0.01 µM (ACHN) was 103%. It also gave a growth at 0.01 µM (786-0 [7]) of 98%, a growth at 0.01 µM (UACC-62) of 96% and a growth at 0.01 µM (SF-539 [8]) of 96%. It also gave a growth at 0.01 µM (SF-268 [9]) of 90%, a growth at 0.01 µM (NCI-H522 [10]) of 97% and a GI50 (T47D) of 1540 nM. It also gave a TGI (T47D) of 3180 nM, a GI50 (MCF7 [11]) of 1540 nM and a TGI (MCF7 [11]) of 2880 nM. It also gave a GI50 (MDA-MB-231 [12]) of 1340 nM, an LC50 (MDA-MB-231 [12]) of 5120 nM and a TGI (MDA-MB-231 [12]) of 2620 nM. It also gave a GI50 (PC-3) of 1370 nM, a TGI (PC-3) of 2900 nM and a GI50 (786-0 [13]) of 1730 nM. For the same molecule, the TGI (786-0 [13]) was 3360 nM, the GI50 (HCT-15) was 1770 nM and the TGI (HCT-15) was 3550 nM. For the same molecule, the growth at 1 µM (MDA-MB-231 [14]) was 72%, the inhibition of growth at 10 µM (HOP-92 [15]) was 50% and the growth at 1 µM (RXF 393) was 99%. The growth at 1 µM (786-0 [16]) was 92%, the growth at 1 µM (SK-OV-3) was 96% and the growth at 1 µM [17] was 90%. It also gave a growth at 1 µM (OVCAR-3) of 94%, a growth at 1 µM (SK-MEL-2 [18]) of 107% and a growth at 1 µM (MDA-MB-435) of 92%. The growth at 1 µM (SF-268 [19]) was 79%, the growth at 1 µM (NCI-H23) was 93% and the growth at 1 µM (HOP-92 [20]) was 70%. It also gave a growth at 1 µM (HOP-62) of 90%, a growth at 1 µM (RPMI-8226) of 83% and a growth at 0.1 µM (OVCAR-8) of 102%.
